Consider one molecule from patent publication EP3120851A1, “4-AMINO-6-(2,6-DICHLOROPHENYL)-8-METHYL-2-(PHENYLAMINO)-PYRIDO[2,3-D]PYRIMIDIN-7(8H)-ONE FOR TREATMENT OF SOLID CANCERS” (Pangaea Biotech S.L., priority 2015, dated 2017).

What all share (assay): MTT proliferation assay, single agent
Holding throughout (format): cell-based
Background: Tetrazolium dyes change colour on reduction, which living cells bring about.

The subject of one assay is 435S. The settings on record: Melanoma (melanocyte), BRAF V600E, 72 h, mean of several independent experiments. The procedure:
(§1) The compound of formula (1) was tested using a Thiazolyl Blue Tetrazolium Bromide (MTT) proliferation assay in a panel of tumor cell lines of different origins.
(§2) All culture materials were obtained from Biological Industries (Kibbutz Beit Haemek, Israel) or Invitrogen (Paisley, Scotland, United Kingdom). The non-tumor cell lines HF and HACAT were provided by Vall d'Hebrón Hospital and GmbH, respectively. The PC9 naïve cell line was provided by Mayumi Ono and, the H3122, HCC78 and 11-18 by Daniel Costa. The PC9-GR1, PC9-GR2, PC9-GR3, PC9-GR4, PC9-GR5 and PC9-ER cell lines were derived in house by exposing the parental PC9 cell line to increasing concentrations of erlotinib (ER) or gefitinib (GR). The rest of the cell lines in which compound (1) was tested were purchased from ATCC (H23, H1975, H2228, A549, H460, Calu-6, H1650, SK-MES-1, EBC1, SNU1, AGS, N87, PC3, BxPC3, DLD1, HT29, SW48, SCC9,FaDu, AU565, Gingival, Prostate, SU-DHL-1 and A431). All cell lines were maintained in RPMI medium supplemented with 10% FBS, 50 µg/mL penicillin-streptomycin and 2 mM L-Glutamine. All cells were grown in a humidified atmosphere with 5% CO2 at 37°C.
(§3) Cell viability in response to single agent treatment was assessed by the Thiazolyl Blue Tetrazolium Bromide (MTT) (Sigma, St Louis, MO) assay. Cells from each cell line were seeded at 2000 to 10000 per well in 96-well plates. […] After treatment, cells were incubated with medium containing MTT (0.75 mg/mL in medium) for 1-2 h at 37°C. Culture medium with MTT was removed and formazan crystals reabsorbed in 100 µL DMSO (Sigma, St. Louis, MO). Cell viability was determined by measuring the absorbance at 492 nm, using a microplate reader (BioWhittaker, Walkersville, MD).
(§4) The IC50s shown are the mean of several independent experiments. Standard errors are also listed Table 2. SCC means squamous cell carcinoma, ADC means adenocarcinoma, GBM means glioblastoma.

A further assay deals with PC9-GR2. As to conditions: Lung ADC, EGFR ex19, 72 h, mean of several independent experiments. The procedure: as §1, §2, §3, §4
The test system of another assay is H23. As to conditions: Homo sapiens, NCI-H23, Lung ADC, KRAS, 72 h, mean of several independent experiments. The procedure:
as §1, §2, §3, §4

The test system of the next assay is FaDu. As to conditions: Homo sapiens, SCC Head&Neck, DDR2 wt, 72 h, mean of several independent experiments. The procedure:
as §1, §2, §3, §4

The subject of a further assay is CD74-ROS1 (G2032). The settings on record: Lung ADC, ROS1 translocated, 72 h, mean of several independent experiments. The procedure: as §1, §2, §3, §4
The subject of another assay is PC9-GR5. As to conditions: Lung ADC, EGFR ex19, 72 h, mean of several independent experiments. The procedure: as §1, §2, §3, §4
The next assay deals with H11-18. As to conditions: Lung ADC, EGFR ex21, 72 h, mean of several independent experiments. The procedure:
as §1, §2, §3, §4

The next assay has as its system PC9-GR1. The settings on record: Lung ADC, EGFR ex19, 72 h, mean of several independent experiments. The procedure: as §1, §2, §3, §4
The next assay concerns U118MG. The settings on record: Homo sapiens, U-118-MG, GBM, ROS1-FIG, 72 h, mean of several independent experiments. The procedure:
as §1, §2, §3, §4

The next assay concerns WM793. The settings on record: Homo sapiens, Melanoma, BRAF V600E, 72 h, mean of several independent experiments. The procedure: as §1, §2, §3, §4
In the next assay the test system is H3122. As to conditions: Homo sapiens, NCI-H3122, Lung ADC, ALK-EML4 (v1), 72 h, mean of several independent experiments. The procedure:
as §1, §2, §3, §4

Another assay deals with Calu6. As to conditions: Homo sapiens, Calu-6, Lung ADC, KRAS, 72 h, mean of several independent experiments. The procedure:
as §1, §2, §3, §4

The subject of another assay is PC9-GR3. As to conditions: Lung ADC, EGFR ex19, 72 h, mean of several independent experiments. The procedure:
as §1, §2, §3, §4

A further assay concerns H2228. As to conditions: Homo sapiens, NCI-H2228, Lung ADC, ALK-EML4 (v3), 72 h, mean of several independent experiments. The procedure:
as §1, §2, §3, §4

For another assay, the system named is CD74-ROS1 (wt). The settings on record: Lung ADC, ROS1 translocated, 72 h, mean of several independent experiments. The procedure:
as §1, §2, §3, §4

In the next assay the test system is I638F+T654M. As to conditions: SCC Lung, DDR2 mutated, 72 h, mean of several independent experiments. The procedure: as §1, §2, §3, §4
The next assay has as its system PC9. As to conditions: Homo sapiens, PC-9, Lung ADC, EGFR ex19, 72 h, mean of several independent experiments. The procedure:
as §1, §2, §3, §4

Regarding `Cn1c(=O)c(-c2c(Cl)cccc2Cl)cc2c(N)nc(Nc3ccccc3)nc21` [Compound (1), 4-amino-6-(2,6-dichlorophenyl)-8-methyl-2-(phenylamino)-pyrido[2,3-d]pyrimidin-7(8H)-one], the IC50 (usually the concentration at which inhibition is half-maximal) is 1000 nM with 435S; 2160 nM with PC9-GR2; 1570 nM in the assay with H23; 4850 nM in the assay on FaDu; 2000 nM in the assay on CD74-ROS1 (G2032); 1610 nM in the assay on PC9-GR5. For the same molecule, the IC50 in the assay with H11-18 was determined as 4900 nM; in the assay with PC9-GR1 it was 1450 nM; with U118MG, 2600 nM; in the assay with WM793, 1600 nM; in the assay on H3122, 1340 nM; with Calu6 it was 720 nM. Besides, the IC50 in the assay on PC9-GR3 amounted to 880 nM; in the assay with H2228, 1360 nM; in the assay with CD74-ROS1 (wt) it was 1900 nM; with I638F+T654M it was 770 nM; with PC9 it was 2850 nM.
